This note sets out measurements from patent US11612602B2, “Heterocyclic compounds and uses as anticancer agents” (ACEA Therapeutics, Inc., priority 2012, dated 2023).

Holding throughout (type): cell-based
For one assay, the system named is EGFR in A431 cells. Nature of the assay: A431 EGF stimulation assay (impedance, xCelligence RTCA). Particulars: Homo sapiens, A-431. As to the method:
All cell lines were obtained from the American Type Culture Collection and were maintained at 37° C. with 5% CO2, in media supplemented with 10% fetal bovine serum and 1% L-glutamine-penicillin-streptomycin. […] A431 and Hela cells were maintained in Dulbecco's Modification of Eagle's Medium. EGF (R&D), EGF inhibitors were resuspended and stored according to the manufacturers' instructions.
Impedance measurements were taken using the xCelligence RTCA system (Roche Applied Science) instrument using the E-plates 96-well device from the same company. Cells were trypsinized and seeded on a 96-well E-plate at a density of 15000 cells per well in a volume of 0.1 ml. Cells were allowed to attach and proliferate overnight. […] Following serum starvation, the cells were pretreated with compounds or vehicle for 40 min and then stimulated with EGF at 30 ng/mL. Throughout the experimental process, the cells were continually monitored, and the changes in impedance were acquired with the xCelligence RTCA system. After EGF treatment, data acquisition was done every minute for up to 2 h. For each cell type the optimal cell concentration was chosen based on their respective proliferation pattern.

The subject of another assay is H1975 cells. Nature of the assay: H1975 cell viability assay (cytotoxicity, xCelligence RTCA). The note with it: 3 days. As to the method: (§1) All cell lines were obtained from the American Type Culture Collection and were maintained at 37° C. with 5% CO2, in media supplemented with 10% fetal bovine serum and 1% L-glutamine-penicillin-streptomycin. H1975, HCC827 and A549 cells were cultured with RPMI 1640 media. A431 and Hela cells were maintained in Dulbecco's Modification of Eagle's Medium. EGF (R&D), EGF inhibitors were resuspended and stored according to the manufacturers' instructions.
(§2) Cells were seeded in 96-well E-Plate devices, and attachment, spreading, and proliferation were monitored using the xCelligence RTCA system. After 20 h of RTCA profiling, the cells were treated with the indicated compounds prediluted in growth media to a final maximal DMSO concentration of 0.1%, and the responses were measured at 30-min intervals for 3 days. For each cell type the optimal cell concentration was chosen based on their respective proliferation pattern.

The next assay relates to EGFR in H1975 cells. The assay can be described thus: H1975 EGF stimulation assay (impedance, xCelligence RTCA). Particulars: Homo sapiens, NCI-H1975, 40 min pretreatment, EGF 30 ng/mL. The method, then: as §1
Impedance measurements were taken using the xCelligence RTCA system (Roche Applied Science) instrument using the E-plates 96-well device from the same company. Cells were trypsinized and seeded on a 96-well E-plate at a density of 15000 cells per well in a volume of 0.1 ml. Cells were allowed to attach and proliferate overnight. Prior to compound treatment, H1975 cells were serum starved in RPMI-1640 for a total of 4 h. Following serum starvation, the cells were pretreated with compounds or vehicle for 40 min and then stimulated with EGF at 30 ng/mL. Throughout the experimental process, the cells were continually monitored, and the changes in impedance were acquired with the xCelligence RTCA system. After EGF treatment, data acquisition was done every minute for up to 2 h. For each cell type the optimal cell concentration was chosen based on their respective proliferation pattern.

Assay [1] addresses T1, EGFR (T790M/L858R), H1975 cell (Homo sapiens, UniProt P00533, L858R/T790M).
T1 construct: endogenous in cells; host or cells: H1975
The assay can be described thus: ELISA assay of EGFR phosphorylation in H1975 cells. The note with it: for IC50: EGFR pY1068 sandwich ELISA, 2 hours compound in serum-free medium; for Selectivity (WT/T790M): ratio of IC50 A431 cell (WT) to IC50 H1975 cell (T790M/L858R). As to the method:
(§3) H1975 and A431 cells were seeded onto each well of a 96-well plate at a density of 4×10^4 cells per well. After 24 hours of growth in serum-containing media, cells were treated with test compound in serum-free medium for 2 hours. A431 cells were stimulated with 30 ng/mL EGF during the last 15 minutes of compound treatment. Cells were washed with ice cold PBS before extraction with 100 μl per well cell lysis buffer. Phosphorylation of EGFR was measured using a sandwich ELISA assay with the pair of phospho-specific EGFR (pY1068) and total EGFR antibodies.
For orientation: An ELISA detects its analyte on a solid surface through an enzyme-linked reagent.

For a further assay, the target named is T2, EGFR (WT), A431 cell (Homo sapiens, UniProt P00533).
T2 construct: endogenous in cells; host or cells: A431
T2 sequence (P00533 25-1210): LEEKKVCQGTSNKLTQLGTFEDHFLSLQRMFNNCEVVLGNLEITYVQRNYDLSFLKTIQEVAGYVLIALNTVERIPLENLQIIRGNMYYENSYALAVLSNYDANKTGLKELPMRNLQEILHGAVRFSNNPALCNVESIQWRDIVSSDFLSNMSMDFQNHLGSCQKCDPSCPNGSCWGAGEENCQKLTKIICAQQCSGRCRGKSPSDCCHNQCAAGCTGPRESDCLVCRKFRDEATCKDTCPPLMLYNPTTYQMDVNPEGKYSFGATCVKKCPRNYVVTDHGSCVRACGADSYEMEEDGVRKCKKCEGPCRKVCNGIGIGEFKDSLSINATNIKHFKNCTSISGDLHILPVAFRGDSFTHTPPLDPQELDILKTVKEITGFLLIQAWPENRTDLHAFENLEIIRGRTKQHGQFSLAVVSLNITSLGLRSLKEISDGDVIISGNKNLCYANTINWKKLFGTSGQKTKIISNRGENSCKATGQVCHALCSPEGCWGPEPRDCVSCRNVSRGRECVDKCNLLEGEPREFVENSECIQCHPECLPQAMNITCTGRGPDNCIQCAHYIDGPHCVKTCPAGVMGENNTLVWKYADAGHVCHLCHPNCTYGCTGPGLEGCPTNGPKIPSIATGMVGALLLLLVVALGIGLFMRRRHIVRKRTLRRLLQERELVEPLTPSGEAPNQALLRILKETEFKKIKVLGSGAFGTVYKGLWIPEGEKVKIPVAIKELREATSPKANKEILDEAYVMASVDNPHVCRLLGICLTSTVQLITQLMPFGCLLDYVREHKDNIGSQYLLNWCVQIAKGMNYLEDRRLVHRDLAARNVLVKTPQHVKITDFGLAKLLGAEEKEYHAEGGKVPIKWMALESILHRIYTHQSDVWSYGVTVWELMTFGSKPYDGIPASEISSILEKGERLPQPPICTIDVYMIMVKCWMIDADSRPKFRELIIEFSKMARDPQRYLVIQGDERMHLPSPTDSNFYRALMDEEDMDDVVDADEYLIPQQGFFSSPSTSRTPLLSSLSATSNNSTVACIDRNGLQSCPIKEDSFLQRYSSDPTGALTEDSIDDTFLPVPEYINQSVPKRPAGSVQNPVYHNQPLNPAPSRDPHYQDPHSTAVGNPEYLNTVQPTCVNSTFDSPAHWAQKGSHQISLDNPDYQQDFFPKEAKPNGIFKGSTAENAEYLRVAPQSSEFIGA
Nature of the assay: ELISA assay of EGFR phosphorylation in A431 cells. The note with it: EGFR pY1068 sandwich ELISA, 2 hours compound, 30 ng/mL EGF last 15 minutes. As to the method:
as §3

The subject of the next assay is A549 cells. Nature of the assay: A549 cell viability assay (cytotoxicity, xCelligence RTCA). Particulars: Homo sapiens, 72 h, 3 days. As to the method:
as §1, §2

In a further assay the test system is HeLa cells. The assay can be described thus: HeLa cell viability assay (cytotoxicity, xCelligence RTCA). Particulars: Homo sapiens, 72 h, 3 days. The method, then: as §1, §2

T1 sequence (P00533 25-1210 T790M/L858R): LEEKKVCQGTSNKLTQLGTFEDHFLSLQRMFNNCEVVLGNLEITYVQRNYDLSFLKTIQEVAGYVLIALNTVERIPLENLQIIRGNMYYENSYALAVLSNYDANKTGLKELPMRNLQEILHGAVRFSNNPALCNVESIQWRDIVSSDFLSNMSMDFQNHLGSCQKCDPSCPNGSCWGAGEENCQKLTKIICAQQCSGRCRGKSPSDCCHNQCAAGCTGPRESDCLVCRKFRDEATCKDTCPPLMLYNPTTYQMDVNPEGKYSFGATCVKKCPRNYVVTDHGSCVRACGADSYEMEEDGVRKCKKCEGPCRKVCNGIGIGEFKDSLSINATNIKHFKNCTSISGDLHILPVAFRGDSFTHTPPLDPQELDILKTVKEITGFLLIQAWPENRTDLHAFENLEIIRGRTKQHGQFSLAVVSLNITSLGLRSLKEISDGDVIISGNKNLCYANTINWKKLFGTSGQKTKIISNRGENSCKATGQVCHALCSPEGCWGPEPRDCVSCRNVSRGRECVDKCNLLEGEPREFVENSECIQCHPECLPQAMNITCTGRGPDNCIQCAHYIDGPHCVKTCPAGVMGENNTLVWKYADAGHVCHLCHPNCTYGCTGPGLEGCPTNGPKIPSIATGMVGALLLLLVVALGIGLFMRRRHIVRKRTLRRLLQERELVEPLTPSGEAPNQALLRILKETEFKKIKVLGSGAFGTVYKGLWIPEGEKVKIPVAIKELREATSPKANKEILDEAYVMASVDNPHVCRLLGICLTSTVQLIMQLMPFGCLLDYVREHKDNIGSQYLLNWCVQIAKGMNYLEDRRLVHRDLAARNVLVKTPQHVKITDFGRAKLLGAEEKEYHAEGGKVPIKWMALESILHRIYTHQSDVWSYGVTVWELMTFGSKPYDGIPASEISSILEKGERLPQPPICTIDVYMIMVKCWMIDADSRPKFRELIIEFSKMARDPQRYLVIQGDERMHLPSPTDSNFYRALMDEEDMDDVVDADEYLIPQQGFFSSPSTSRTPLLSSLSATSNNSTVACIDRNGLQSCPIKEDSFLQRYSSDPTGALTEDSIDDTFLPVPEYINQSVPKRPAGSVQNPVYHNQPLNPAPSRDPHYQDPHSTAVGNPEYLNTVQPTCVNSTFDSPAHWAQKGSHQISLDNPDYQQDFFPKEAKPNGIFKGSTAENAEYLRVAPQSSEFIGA

As for `C=CC(=O)Nc1cccc(C(F)(F)c2nc(Nc3ccc(N4CCN(C)CC4)cc3)nc3[nH]cnc23)c1` [Compound 13a, N-(3-(difluoro(2-(4-(4-methylpiperazin-1-yl)phenylamino)-9H-purin-6-yl)methyl)phenyl)acrylamide], the IC50 (usually the midpoint of a concentration-inhibition curve) was 2.4 µM in the assay on EGFR in A431 cells; 1.7 µM in the assay on EGFR in H1975 cells; 0.17 µM in assay [1]; 13.7 µM against EGFR (WT), A431 cell; over 20 µM with A549 cells; over 2.2 µM in the assay on HeLa cells. In the assay on H1975 cells, the “H1975 cell viability assay (under head IC50 (uM), results in words)” value (“H1975 cell viability assay” for short) was “Active”. Moreover, in assay [1], the “Selectivity (WT/T790M)” value is listed as 82.

`C=CC(=O)Nc1cccc(C(F)(F)c2nc(Nc3ccc(N4CCN(C)CC4)cc3OC)nc3[nH]cnc23)c1` [Compound 13b, N-(3-(difluoro(2-(2-methoxy-4-(4-methylpiperazin-1-yl)phenylamino)-9H-purin-6-yl)methyl)phenyl)acrylamide]: the IC50 is 4.1 µM in the assay on EGFR in A431 cells; 1.9 µM with EGFR in H1975 cells; 0.34 µM in assay [1]; 10.8 µM against EGFR (WT), A431 cell; over 20 µM in the assay on A549 cells; over 20 µM with HeLa cells. The “Selectivity (WT/T790M)” value in assay [1] is given as 32.

For the compound `C=CC(=O)Nc1cccc(C(F)(F)c2nc(Nc3ccc(N4CCN(C)CC4)cc3)ncc2F)c1` [Compound 19, N-(3-(difluoro(5-fluoro-2-(4-(4-methylpiperazin-1-yl)phenylamino)pyrimidin-4-yl)methyl)phenyl)acrylamide], the half-inhibitory concentration (IC50) in the assay with EGFR in A431 cells is 0.97 µM; in the assay on EGFR in H1975 cells it was 1.1 µM; in assay [1], 0.029 µM; against EGFR (WT), A431 cell, 2.46 µM; in the assay on A549 cells, over 6.7 µM; with HeLa cells, over 6.7 µM. In addition, in the assay on H1975 cells, the “H1975 cell viability assay” value is recorded as “Active”. Moreover, the “Selectivity (WT/T790M)” value in assay [1] worked out at 85.

`C=CC(=O)Nc1cccc(C(F)(F)c2nc(Nc3ccc(N4CCN(C)CC4)cc3)nc3c2ccn3CO)c1` [Compound 27a, N-(3-(difluoro(7-(hydroxymethyl)-2-(4-(4-methylpiperazin-1-yl)phenylamino)-7H-pyrrolo[2,3-d]pyrimidin-4-yl)methyl)phenyl)acrylamide]: in assay [1], the midpoint of inhibition, the IC50, lay at 0.058 µM and the “Selectivity (WT/T790M)” value is 403. Moreover, on EGFR (WT), A431 cell, half-maximal inhibition (IC50) was put at 23.4 µM.

As to `C=CC(=O)Nc1cccc(C(F)(F)c2nc(Nc3ccc(N4CCN(C)CC4)cc3)nc3[nH]ccc23)c1` [Compound 28a, N-(3-(difluoro(2-(4-(4-methylpiperazin-1-yl)phenylamino)-7H-pyrrolo[2,3-d]pyrimidin-4-yl)methyl)phenyl)acrylamide], in assay [1], inhibition was half-maximal at 0.026 µM (IC50) and the “Selectivity (WT/T790M)” value was 107. This compound came in with an IC50 against EGFR (WT), A431 cell of 2.73 µM.

As for `C=CC(=O)Nc1cccc(C(F)(F)c2nc(Nc3ccc(N4CCN(C)CC4)nc3)nc3[nH]ccc23)c1` [Compound 28b, N-(3-(difluoro(2-(6-(4-methylpiperazin-1-yl)pyridin-3-ylamino)-7H-pyrrolo[2,3-d]pyrimidin-4-yl)methyl)phenyl)acrylamide], in assay [1], the IC50 was found to be 0.026 µM and the “Selectivity (WT/T790M)” value is on record as 466. Half-maximal inhibition at EGFR (WT), A431 cell (IC50) required 12 µM.

Take `C=CC(=O)Nc1cccc(C(F)(F)c2nc(Nc3ccc(N4CCN(C)CC4)c(F)c3)nc3[nH]ccc23)c1` [Compound 28c, N-(3-(difluoro(2-(3-fluoro-4-(4-methylpiperazin-1-yl)phenylamino)-7H-pyrrolo[2,3-d]pyrimidin-4-yl)methyl)phenyl)acrylamide]: in assay [1], the midpoint of inhibition, the IC50, lay at 0.08 µM and the “Selectivity (WT/T790M)” value was found to be 100. The compound also had an IC50 on EGFR (WT), A431 cell of 8.05 µM.

`C=CC(=O)Nc1cccc(C(F)(F)c2nc(Nc3ccc(N4CCN(C)CC4)cc3OC)nc3[nH]ccc23)c1` [Compound 28d, N-(3-(difluoro(2-(2-methoxy-4-(4-methylpiperazin-1-yl)phenylamino)-7H-pyrrolo[2,3-d]pyrimidin-4-yl)methyl)phenyl)acrylamide]: in assay [1], the IC50 worked out at 0.158 µM and the “Selectivity (WT/T790M)” value is on record as over 127. The same compound registered an IC50 against EGFR (WT), A431 cell of over 20 µM.

Turning to `C=CC(=O)Nc1cccc(C(F)(F)c2nc(Nc3ccc(N4CCN(C)CC4)nc3)ncc2OC)c1` [Compound 31], in assay [1], the IC50 is 0.03 µM and the “Selectivity (WT/T790M)” value is on record as over 657. Besides, on EGFR (WT), A431 cell, the IC50 is over 20 µM.

Consider `C=CC(=O)Nc1cccc(C(F)(F)c2nc(Nc3ccc(N4CCN(C)CC4)cc3OC)ncc2F)c1` [Compound 32], for which, in assay [1], 1.3 µM corresponded to half-maximal inhibition (IC50) and the “Selectivity (WT/T790M)” value was over 15.4. The compound also returned an IC50 at EGFR (WT), A431 cell of over 20 µM.

For the compound `C=CC(=O)Nc1cccc(C(F)(F)c2nc(Nc3ccc(N4CCN(C)CC4)nc3)ncc2F)c1` [Compound 33], in assay [1], the IC50 came to 0.099 µM and the “Selectivity (WT/T790M)” value amounted to 72.6. Moreover, on EGFR (WT), A431 cell, 7.17 µM corresponded to half-maximal inhibition (IC50).

Take `C=CC(=O)Nc1cccc(C(F)(F)c2nc(Nc3ccc(N4CCN(C)CC4)c(F)c3)ncc2OC)c1` [Compound 34]: in assay [1], half-maximal inhibition (IC50) was put at 0.038 µM and the “Selectivity (WT/T790M)” value came to 113. On EGFR (WT), A431 cell, this compound registered an IC50 of 4.37 µM.

With `C=CC(=O)Nc1cccc(C(F)(F)c2nc(Nc3ccc(N4CCN(C)CC4)cc3)ncc2OC)c1` [Compound 35], the IC50 was determined as 0.062 µM in assay [1] and 3.61 µM at EGFR (WT), A431 cell. The “Selectivity (WT/T790M)” value in assay [1] came out at 58.4.

`C=CC(=O)Nc1cccc(C(F)(F)c2nc(Nc3ccc(N4CCN(C)CC4)c(F)c3)ncc2F)c1` [Compound 36]: in assay [1], the IC50 stood at 0.093 µM and the “Selectivity (WT/T790M)” value turned out to be 23.3. This compound also came in with an IC50 against EGFR (WT), A431 cell of 2.17 µM.

Turning to `C=CC(=O)Nc1cccc(C(F)(F)c2nc(Nc3ccc(N4CCN(C)CC4)cc3)ncc2C)c1` [Compound 37], in assay [1], the IC50 was 0.106 µM and the “Selectivity (WT/T790M)” value turned out to be 105. The compound also came in with an IC50 on EGFR (WT), A431 cell of 11.1 µM.

As to `C=CC(=O)Nc1cccc(C(F)(F)c2nc(Nc3ccc(N4CCN(C)CC4)cc3)ncc2Cl)c1` [Compound 38], in assay [1], the IC50 worked out at 0.341 µM and the “Selectivity (WT/T790M)” value came out at 11.2. The compound also gave an IC50 on EGFR (WT), A431 cell of 3.81 µM.

In the case of `C=CC(=O)Nc1cccc(C(F)(F)c2nc(Nc3ccc(N4CCN(CC)CC4)cc3)ncc2F)c1` [Compound 39], in assay [1], the IC50 stood at 0.041 µM and the “Selectivity (WT/T790M)” value turned out to be 17.3. Moreover, the IC50 at EGFR (WT), A431 cell was 0.71 µM.

In the case of `C/C=C/C(=O)Nc1cccc(C(F)(F)c2nc(Nc3ccc(N4CCN(C)CC4)cc3)ncc2F)c1` [Compound 40], in assay [1], 1.74 µM corresponded to half-maximal inhibition (IC50) and the “Selectivity (WT/T790M)” value was 14.6. At EGFR (WT), A431 cell, this compound returned an IC50 of 25.3 µM.

`C/C=C/C(=O)Nc1cccc(C(F)(F)c2nc(Nc3ccc(N4CCN(CC)CC4)cc3)ncc2F)c1` [Compound 42]: the IC50 in assay [1] turned out to be 1.63 µM; against EGFR (WT), A431 cell it was 11.8 µM. In addition, the “Selectivity (WT/T790M)” value in assay [1] is 7.2.

In the case of `C=CC(=O)Nc1cccc(C(F)(F)c2nc(Nc3ccc(N4CCN(C)CC4)cc3OC)ncc2OC)c1` [Compound 63], in assay [1], the IC50 amounted to 0.03 µM and the “Selectivity (WT/T790M)” value amounted to 974. For the same compound, the IC50 at EGFR (WT), A431 cell amounted to 28.8 µM.

As for `C=CC(=O)Nc1cccc(Oc2nc(Nc3ccc(N4CCN(C)CC4)cc3OC)ncc2Cl)c1` [WZ4002, reference compound], the IC50 is 0.817 µM with EGFR in A431 cells, 1.1 µM in the assay on EGFR in H1975 cells, over 20 µM with A549 cells and over 6.7 µM in the assay on HeLa cells. Further, the “H1975 cell viability assay” value with H1975 cells is recorded as “Active”.
